# Ends that are not written are not given here. Peptide text beside a SMILES is read from it. * marks the point of attachment. X4 = COCCOCCOCCOCCOCCOCCOCCOCCOCCOCCOCCOCCOCCOCCOCCOCCOCCOCCOCCOCCOCCOCCOCCOCCOCCOCCOCCOCCOCCOCCOCCOCCOCCOCCOCCOCCOCCOCCOCCOCCOCCOCCOCCOCCOCCOCCOCCOCCNC(=O)CCN1C(=O)CC(*)C1=O; X3 = COCCOCCOCCOCCOCCOCCOCCOCCOCCOCCOCCOCCOCCOCCOCCOCCOCCOCCOCCOCCOCCOCCOCCOCCOCCOCCOCCOCCOCCOCCOCCOCCOCCOCCOCCOCCNC(=O)CCN1C(=O)CC(*)C1=O; X1 = COCCOCCOCCOCCOCCOCCOCCOCCOCCOCCOCCOCCNC(=O)CCN1C(=O)CC(*)C1=O
# Key:
# [1] = tested on: K. pneumonia, 700603 (Kp); format: cell-based; conditions: Mueller Hinton Broth
# [2] = tested on: Gram+ & Gram−, Fungi, Virus, Parasites, Protozoan, HIV, Cancer cells; conditions: Antimicrobial Peptide Database; cited from earlier work
# [3] = tested on: E. coli O157:H7, BAA-1883 (Ec F); conditions: O157:H7
# [4] = tested on: pUC19 plasmid DNA; assay: Plasmid DNA cleavage by reactive oxygen species; format: biochemical; conditions: 10 μM base pair pUC19, 100 nM M-chelate, 1 mM H2O2, 1 mM ascorbate, pH 7.4
# [5] = tested on: S. pneumoniae, 49619 (Sp); conditions: 49619 (Sp)
# [6] = tested on: A. baumanii, BAA-747 (Ab); conditions: BAA-747
# [7] = tested on: E. coli, 25922 (Ec); conditions: 25922 (Ec)
# [8] = Cytotoxicity toward human Huh7 liver cells
molecule,measurement,setting,value
"GGHGVRRFPWWWPFLRR [PEP 189, GGHGVRRFPWWWPFLRR]",MIC Kp,[1],7.2 µM
GRLARIVVIRVAR [SEQ ID NO: 56],activity against organisms,[2],active against Gram+ & Gram−
GILAWKWAWWAWRRGGC [SEQ ID NO: 61],activity against organisms,[2],"active against Gram+ & Gram−, Fungi, Virus, HIV"
IRRIIRKIIHIIKKGGC [SEQ ID NO: 65],activity against organisms,[2],"active against Gram+ & Gram−, Fungi"
NCC(=O)NCC(=O)N[C@@H](Cc1c[nH]cn1)C(=O)N1CCN(c2cc3c(cc2F)c(=O)c(C(=O)O)cn3C2CC2)CC1 [GGH CIPRO],MIC Ec F,[3],8 µM
RFPWWWPFLRRGGC [SEQ ID NO: 60],activity against organisms,[2],"active against Gram+ & Gram−, Fungi"
"Cu-GGHC-Amik fr3: copper complex of GGHC-Amikacin, fraction 3 (also: copper complex, amikacin conjugate, site not given here)",Linear (μM bp),[4],0.04 μM bp
same,Nicked (μM bp),[4],6.46 μM bp
same,Supercoiled (μM bp),[4],3.50 μM bp
CC[C@H](C)[C@H](NC(=O)[C@H](CCCCN)NC(=O)[C@H](Cc1c[nH]c2ccccc12)NC(=O)[C@H](CCCNC(=N)N)NC(=O)[C@H](CCCNC(=N)N)NC(=O)[C@H](Cc1c[nH]cn1)NC(=O)CNC(=O)CN)C(=O)N[C@H](C(=O)N[C@H](C(=O)N[C@H](C(=O)N[C@@H](CCCNC(=N)N)C(=O)N[C@@H](Cc1c[nH]c2ccccc12)C(=O)N[C@@H](CCCNC(=N)N)C(=O)N[C@@H](CCCNC(=N)N)C(=O)NCC(=O)NCC(=O)N[C@@H](CSC1CC(=O)N(CCC(=O)NCCOCCOCCOCCOCCOCCOCCOCCOCCOCCOCCOCCOC)C1=O)C(=O)O)[C@@H](C)CC)C(C)C)C(C)C (stereo partly drawn) [PEP 314 PEG 12] (H-GGHRRWKIVVIRWRRGGC(X1)-OH; C-terminus assumed),MIC Sp,[5],11 µM
same,MIC Ec F,[3],11 µM
same,MIC Ab,[6],2.7 µM
same,MIC Ec,[7],11 µM
GIRRIIRKIIHIIKKGGC [SEQ ID NO: 59],activity against organisms,[2],"active against Gram+ & Gram−, Fungi GVR"
CC[C@H](C)[C@H](NC(=O)[C@H](Cc1c[nH]cn1)NC(=O)CNC(=O)CN)C(=O)N[C@@H](CCCNC(=N)N)C(=O)N[C@@H](CCCNC(=N)N)C(=O)N[C@H](C(=O)N[C@H](C(=O)N[C@@H](CCCNC(=N)N)C(=O)N[C@@H](CCCCN)C(=O)N[C@H](C(=O)N[C@H](C(=O)N[C@@H](Cc1c[nH]cn1)C(=O)N[C@H](C(=O)N[C@H](C(=O)N[C@@H](CCCCN)C(=O)N[C@@H](CCCCN)C(=O)NCC(=O)NCC(=O)N[C@@H](CSC1CC(=O)N(CCC(=O)NCCOCCOCCOCCOCCOCCOCCOCCOCCOCCOCCOCCOCCOCCOCCOCCOCCOCCOCCOCCOCCOCCOCCOCCOCCOCCOCCOCCOCCOCCOCCOCCOCCOCCOCCOCCOCCOCCOCCOCCOCCOCCOCCOCCOCCOCCOCCOCCOC)C1=O)C(=O)O)[C@@H](C)CC)[C@@H](C)CC)[C@@H](C)CC)[C@@H](C)CC)[C@@H](C)CC)[C@@H](C)CC (stereo partly drawn) [PEP 318 PEG 48] (H-GGHIRRIIRKIIHIIKKGGC(X4)-OH; C-terminus assumed),MIC Ab,[6],13.9 µM
same,IC50,[8],> 200 µM
GRRWKIVVIRWRRGGC [SEQ ID NO: 67],activity against organisms,[2],active against Gram+ & Gram−
GIRRIIRKIIHIIKK [SEQ ID NO: 53],activity against organisms,[2],"active against Gram+ & Gram−, Fungi"
CC[C@H](C)[C@H](NC(=O)[C@H](Cc1c[nH]cn1)NC(=O)CNC(=O)CN)C(=O)N[C@@H](CCCNC(=N)N)C(=O)N[C@@H](CCCNC(=N)N)C(=O)N[C@H](C(=O)N[C@H](C(=O)N[C@@H](CCCNC(=N)N)C(=O)N[C@@H](CCCCN)C(=O)N[C@H](C(=O)N[C@H](C(=O)N[C@@H](Cc1c[nH]cn1)C(=O)N[C@H](C(=O)N[C@H](C(=O)N[C@@H](CCCCN)C(=O)N[C@@H](CCCCN)C(=O)NCC(=O)NCC(=O)N[C@@H](CSC1CC(=O)N(CCC(=O)NCCOCCOCCOCCOCCOCCOCCOCCOCCOCCOCCOCCOCCOCCOCCOCCOCCOCCOCCOCCOCCOCCOCCOCCOCCOCCOCCOCCOCCOCCOCCOCCOCCOCCOCCOCCOC)C1=O)C(=O)O)[C@@H](C)CC)[C@@H](C)CC)[C@@H](C)CC)[C@@H](C)CC)[C@@H](C)CC)[C@@H](C)CC (stereo partly drawn) [PEP 318 PEG 36] (H-GGHIRRIIRKIIHIIKKGGC(X3)-OH; C-terminus assumed),MIC Ec F,[3],15.8 µM
same,MIC Ab,[6],7.9 µM
same,MIC Ec,[7],15.8 µM
same,IC50,[8],> 200 µM
CC(C)C[C@H](NC(=O)[C@H](CCCNC(=N)N)NC(=O)[C@H](CCC(N)=O)NC(=O)[C@H](CCCCN)NC(=O)[C@@H](NC(=O)[C@H](CCCCN)NC(=O)[C@H](CCCNC(=N)N)NC(=O)[C@H](CC(C)C)NC(=O)[C@H](CC(N)=O)NC(=O)[C@H](Cc1ccccc1)NC(=O)[C@H](Cc1ccccc1)NC(=O)[C@H](CC(C)C)NC(=O)[C@H](CCCCN)NC(=O)[C@H](CCCNC(=N)N)NC(=O)[C@H](CCC(N)=O)NC(=O)CNC(=O)[C@H](Cc1c[nH]cn1)NC(=O)CNC(=O)CN)[C@@H](C)O)C(=O)NCC(=O)N[C@@H](Cc1c[nH]c2ccccc12)C(=O)N[C@@H](Cc1ccccc1)C(=O)N[C@@H](CC(N)=O)C(=O)N[C@@H](CCC(N)=O)C(=O)N[C@@H](CS)C(=O)O [PEP 192],MIC Kp,[1],5.3 µM
VRRFPWWWPFLRRGGC [SEQ ID NO: 66],activity against organisms,[2],"active against Gram+ & Gram−, Fungi"
GVRRFPWWWPFLRR [SEQ ID NO: 54],activity against organisms,[2],"active against Gram+ & Gram−, Fungi"
GIGKFLHSAGKFGKAFVGEIMKS [SEQ ID NO: 57],activity against organisms,[2],"active against Gram+ & Gram−, Virus, Fungi, Parasites, Protozoan, HIV"
O=C([O-])CN(CCN(CC(=O)[O-])CC(=O)[O-])CC(=O)[O-].[Fe+3] [Fe-EDTA],Linear (μM bp),[4],0.30 μM bp
same,Nicked (μM bp),[4],2.44 μM bp
same,Supercoiled (μM bp),[4],7.26 μM bp
"GGHGIRRIIRKIIHIIKK-NH2 (C-terminus assumed) [PEP 188, GGHGIRRIIRKIIHIIKK]",MIC Kp,[1],1.9 µM
FVQWFSKFLGRILGGC [SEQ ID NO: 63],activity against organisms,[2],"active against Gram+ & Gram−, Virus, Parasites, Protozoan"
GILAWKWAWWAWRR [SEQ ID NO: 55],activity against organisms,[2],"active against Gram+ & Gram−, Fungi, Virus, HIV"
"CC/C(=C(\c1ccccc1)c1ccc(OCCN(C)C)cc1)c1ccccc1 [Tamoxifen, reference compound]",IC50,[8],42 µM
ILPWKWPWWPWRRGGC [SEQ ID NO: 64],activity against organisms,[2],"active against Gram+ & Gram−, Fungi, Virus, HIV"
VDKGSYLPRPTPPRPIYNRN [SEQ ID NO: 58],activity against organisms,[2],active against Gram+ & Gram−
O=C([O-])CN1CCN(CC(=O)O)CCN(CC(=O)[O-])CCN(CC(=O)O)CC1.[Cu+2] [Cu-DOTA],Linear (μM bp),[4],0.09 μM bp
same,Nicked (μM bp),[4],1.31 μM bp
same,Supercoiled (μM bp),[4],8.59 μM bp
RRWKIVVIRWRRGGC [SEQ ID NO: 62],activity against organisms,[2],active against Gram+ & Gram−
